Measured values as given in patent US20060189539A1, “Novel GnRH analogues with antitumour effects and pharmaceutical compositions thereof” (priority 1994, published 2006).
Non-standard residues stand in square brackets, D forms with d. Residues, ends and D or L forms follow the SMILES beside them. Groups on a side chain read outwards from the residue. *: point of attachment. dPhe(4-Cl) = N[C@H](Cc1ccc(Cl)cc1)C(=O)O; NEt2 = CCN(CC)*

Key:
[1] = system: Ishikawa human endometrium carcinoma cell line; test: Inhibition of colony formation (dose-survival), Example 18; assay type: cell-based; conditions: 50 μM
Excerpt: (§1) Human cell lines used in in vitro experiments. MCF-7 human mammary tumour cell line was stabilized in 1973 by Soule et al. from the pleural fluid of mammary carcinoma patients. The cells grow in monolayer and are epithelial in their character. MDA-MB-231 human mammary carcinoma cell line was isolated and stabilized in 1974 by Cailleau et al. similarly from pleural fluid. These cells also grow in monolayer. PC3 human prostate carcinoma cell line was stabilized 20 in 1979 in cell culture by Kaighn et al.; the cells are of simple epithelium type and form compact colonies in clonogenic assays. Ishikawa cell line originated from adenocarcinoma of human endometrium [Nishida et al.: Obstet. Gynecol. Jpn, 37, 25 1103-1111 (1985)], has epithelial character and contains steroid as well as GnRH receptors. Human tumour cell lines are maintained in plastic flasks (Greiner) in Dulbecco-6modified Eagle-MEM (DMEM GIBCO) nutritive medium. The medium used herein contained 10% of fetal calf serum (FCS).
(§2) In the case of cytostatics the cell-damaging effect is not cell-specific. […] One part of the arrested cells again go into the cycle, the other part may perish (apoptosis). […] The investigations were carried out on MCF-7 and MDA-MB-231 human mammary carcinoma cell lines, PC3 human prostate 15 carcinoma cell line and Ishikawa human endometrium carcinoma cell line. Threehundred cells were set into Petri dishes of 3.5 cm in diameter each. The treatment was carried out once, 24 hours following the explantation, then the colonies formed were counted after 9 to 12 days.

[2] = system: MCF-7 human mammary carcinoma cell line; test: as above; assay type: cell-based; conditions: 50 μM
Excerpt: as §1, §2

[3] = system: MDA-MB-231 human mammary carcinoma cell line; test: as above; assay type: cell-based; conditions: 50 μM
Excerpt: as §1, §2

[4] = system: PC3 human prostate carcinoma cell line; test: as above; assay type: cell-based
Excerpt: as §1, §2

[5] = system: MCF-7 human mammary carcinoma cell line; test: Inhibition of colony formation (dose-survival), Example 48; assay type: cell-based; conditions: 50 μM
Excerpt: MCF-7 human mammary carcinoma cell line was stabilized in 1973 by Soule et al. from the pleural fluid of a patient suffering from mammary carcinoma. MDA-MB-231 human mammary carcinoma cell line was isolated and stabilized by Cailleau et al. in 1974 similarly from pleural fluid. Both cell lines grow in monolayer. […] MCF-7 cell line is estradiol receptor (ER)-positive containing proteins specifically binding GnRH. Thus, it represents, a useful model system for investigating the direct effect of GnRH mediated by the GnRH receptor. Being ER-negative and GnRH receptor-positive, MDA-MB-231 cell line is similarly suitable to study the direct effect of GnRH. PC3 human prostate carcinoma cell line was stabilized in cell culture by Kaighn et al. in 1979. The cells are of epithelial type and form compact colonies in clonogenic assays. The Ishikawa cell line originates from human endometrial adenocarcinoma [M. Nishida et al.: Acta Obstet. Gynecol. Jpn. 37, 1103-1111 (1985)], it is epithelial in its character and contains steroid-as well as GnRH receptors. The examination gives accurate information about the cell-damaging effect of the substance tested as a function of varying doses. The treatment was carried out once; the colonies formed from the surviving cells were counted after 8-12 days. […] A part of the arrested cells again entered the cycle, an other part of them might be destroyed (apoptosis). […] The treatment was once carried out 24 hours after setting, then the colonies formed were counted after 8-12 days. The cells were treated once after 24 hours with 1-50 μM of various GnRH analogues of Examples above or with 1-50 μM of GnRH-III, respectively. The percentages of inhibition obtained on MCF-7, MDA-MB-231, PC3 and Ishikawa cells, respectively, together with the dose of the active agent used are shown in Table VIII.

[6] = system: MDA-MB-231 human mammary carcinoma cell line; test: as above; assay type: cell-based
Excerpt: (§3) MCF-7 human mammary carcinoma cell line was stabilized in 1973 by Soule et al. from the pleural fluid of a patient suffering from mammary carcinoma. MDA-MB-231 human mammary carcinoma cell line was isolated and stabilized by Cailleau et al. in 1974 similarly from pleural fluid. Both cell lines grow in monolayer. MCF-7 and MDA-MB-231 human mammary carcinoma cell lines are maintained in plastic flasks (Greiner), in Dulbecco-modified Eagle-MEM (DMEM, GIBCO) liquid nutrient medium containing 10% of fetal calf serum. MCF-7 cell line is estradiol receptor (ER)-positive containing proteins specifically binding GnRH. Thus, it represents, a useful model system for investigating the direct effect of GnRH mediated by the GnRH receptor. Being ER-negative and GnRH receptor-positive, MDA-MB-231 cell line is similarly suitable to study the direct effect of GnRH. PC3 human prostate carcinoma cell line was stabilized in cell culture by Kaighn et al. in 1979. The cells are of epithelial type and form compact colonies in clonogenic assays. The Ishikawa cell line originates from human endometrial adenocarcinoma [M. Nishida et al.: Acta Obstet. Gynecol. Jpn. 37, 1103-1111 (1985)], it is epithelial in its character and contains steroid-as well as GnRH receptors.
(§4) The examination gives accurate information about the cell-damaging effect of the substance tested as a function of varying doses. The treatment was carried out once; the colonies formed from the surviving cells were counted after 8-12 days. […] A part of the arrested cells again entered the cycle, an other part of them might be destroyed (apoptosis). […] In the case of a dose-response investigation, colonies containing less than 15 cells were not counted. 300 cells were put into each Petri dishes of 3.5 cm in diameter. The treatment was once carried out 24 hours after setting, then the colonies formed were counted after 8-12 days. The cells were treated once after 24 hours with 1-50 μM of various GnRH analogues of Examples above or with 1-50 μM of GnRH-III, respectively. The percentages of inhibition obtained on MCF-7, MDA-MB-231, PC3 and Ishikawa cells, respectively, together with the dose of the active agent used are shown in Table VIII.

[7] = system: Ishikawa endometrium tumour cell culture; test: as above; assay type: cell-based, human; conditions: 50 μM
Excerpt: as §3, §4

[8] = system: PC3 prostate tumour cell culture; test: as above; assay type: cell-based, human
Excerpt: as §3, §4

human tumor cell lines = test: Colony formation, Example 48, comparison with control D-Trp6-hGnRH; assay type: cell-based; conditions: data of Table VIII
Procedure: as §4
In these studies the D-Trp6-hGnRH analogue (Sigma Co.) commonly used in the tumour therapy was employed as control.

MCF-7 xenograft = test: In vivo antitumour effect on MCF-7 xenograft; parameters: species or system immunosuppressed CBA/Ca mice; conditions: 2 × 25 μg
Procedure: The immunosuppression of mice was carried out by using the method of Steel et al. (1978).
CBA/Ca female mice of about 6 weeks old were thymectomized and then, after one week, they were irradiated with 60Co (whole body irradiation; the lethal dose is 9.5 Gray). Within 24 hours 3 to 5×10^5 myelocytes were injected to the animals. Beneath the skin of the immunosuppressed mice 2×10^7 tumour cells or, in the case of later passages, about 2 mm^3 of tumour cells or in the case of later, additional passages about 2 mm^3 of tumour pieces were implanted. […] The treatment with steroid hormone was stopped by at least one week before beginning the investigation.
In the case of MCF-7 tumours (xenografts) the examinations were carried out with passages being in the phase of the 37th and 38th, respectively, transplantations.
In the case of mice bearing MCF-7 xenograft, the treatment was begun in the 4th week following xeno-transplantation.
Recent investigations have begun on 28 animals bearing MCF-7 xenograft .and on 28 animals bearing MDA-MB-231 xenograft. On animals bearing MCF-7 tumour the treatment was commenced in the 5th week following xeno-transplantation; the tumour volume was 205 to 225 mm^3. On animals bearing MDA-MB-231 tumour, the treatment was started in the 4th week after xeno-transplantation with a tumour volume of 140 to 150 mm^3. […] The control groups were daily treated with physiological saline s.c. (Each treated group consisted of 7 animals.)

B-lymphocytes = test: Humoral immune response (antibody production of B-lymphocytes); assay type: in vivo, mice; conditions: for Increase of the humoral immune response: mice
T-lymphocytes = test: Cellular immune response (rosette formation against BRBC antigen); assay type: in vivo, mice
Excerpt: The immunosuppressive side effect of cytostatics used in tumour therapy is commonly known. This effect can be compensated to a certain grade by various immunostimulants (endotoxin, levamisole). Polypeptides with much […] molecular weights (about 40,000 to 80,000) are also capable of protecting against immunosuppressive effect [Gal et al.: J. Biol. Resp. Modif. 5, 148-159 (1986)). The molecular weight of the novel polyanionic P-GFLG-OH macromolecule tested by us is about 10,000, that of MI-1892 is about 2000, i.e. relatively low; therefore, their immunostimulatory activity was unexpected.

[9] = system: Ishikawa human endometrium tumour cells; conditions: 30 μM of active substance, conjugate, treated once
Excerpt: (§5) The procedure of treatment was as follows. After trypsinization the cells, 400,000 cells of MCF-7, MDA-MB-231 human mammary carcinoma, PC3 human prostate carcinoma or Ishikawa human endometrium tumour each were passed into Petri dishes of 10 cm in diameter. […]

[10] = system: PC3 human prostate carcinoma cells; test: In vitro inhibition of cell proliferation (cell count), Example 19; assay type: cell-based; conditions: 30 μM of active substance, conjugate, treated once
Procedure: as §5, with “diameter. Starting from the day following transfer, the cells were treated with the substances to be tested in solution prepared with the nutrient medium during the exponential growth phase.” for “diameter.”

`NCCCC[C@H](NC(=O)[C@H](Cc1c[nH]c2ccccc12)NC(=O)[C@H](Cc1c[nH]cn1)NC(=O)[C@@H]1CCC(=O)N1)C(=O)N[C@@H](Cc1c[nH]cn1)C(=O)N[C@@H](CC(=O)O)C(=O)N[C@@H](Cc1c[nH]c2ccccc12)C(=O)N[C@@H](CCCCN)C(=O)N1CCC[C@H]1C(=O)NCC(N)=O` [Compound 6, Lys^4-GnRH-III] was tested, and the “% Inhibition of colony formation” value [1] was 21%, the “% Inhibition of colony formation” value [2] was 40% and the “% Inhibition of colony formation” value [3] was 35%. The “% Inhibition of colony formation” value ([4]; 50 μM) was “did not show any inhibition”, the “% Inhibition of colony formation” value [5] was 40% and the “% Inhibition of colony formation” value ([6]; 10 μM) was 18%. The “% Inhibition of colony formation” value ([6]; 50 μM) was 35%, the “% Inhibition of colony formation” value [7] was 21% and the “% Inhibition of colony formation” value ([8]; 50 μM) was 0%. The “Effect on colony-forming ability” value ([8]; within the dose range used (1-50 μM)) was “did not influence” and the “Inhibitory effect on colony formation compared with control D-Trp6-hGnRH” value (human tumor cell lines) was “exceeded the inhibitory effect of control”.
`CCN(CC)C(=O)[C@H](CC(=O)N[C@@H](CC(C)C)C(=O)N[C@@H](CCC(N)=O)C(=O)N1CCC[C@H]1C(=O)N[C@H](C)C(N)=O)NC(=O)[C@H](CCCCN)NC(=O)[C@H](CO)NC(=O)[C@@H](Cc1c[nH]c2ccccc12)NC(=O)[C@@H](Cc1ccc(Cl)cc1)NC(=O)[C@@H](Cc1c[nH]c2ccccc12)NC(C)=O` [MI-1892, Ac-D-Trp^1,3,D-Cpa^2,Lys^5,[β-Asp(DEA)]^6,D-Ala^10-hGnRH, reference compound] (Ac-[dW][dPhe(4-Cl)][dW]SKD([Leu-Gln-Pro-dA-NH2])-NEt2) was tested, and the Inhibition % (MCF-7 xenograft; week 4) was 22.5%, the Inhibition % (MCF-7 xenograft; week 6) was 21% and the “Effect on the humoral immune response” value (B-lymphocytes; dose not stated) was “strengthened”. For the same compound, the “Increase of the humoral immune response” value (B-lymphocytes; 50 μg/mouse) was “more than twofold”, the “Increase of the humoral immune response” value (B-lymphocytes; 100 μg/mouse) was “threefold” and the “Increase of the cellular immune response” value (T-lymphocytes; 100 μg/mouse) was “nearly twofold”. For the same compound, the “Effect on the cellular immune response (activity of T-lymphocytes against BRBC antigen)” value (T-lymphocytes; dose not stated) was “increased”.
“D-Phe2,D-Trp3,{D-Lys[n-poly(N-vinylpyrrolidone-co-maleic acid)-Gly-Phe-Leu-Gly-]}6.-GNRH [P-GFLG-1004]” was tested, and the “% Inhibition of colony formation” value [1] was 46%, the “% Inhibition of colony formation” value ([4]; 30 μM) was 100% and the “% Inhibition of cell division” value [9] was 20%. For the same compound, the “% Inhibition of cell division” value [10] was 35% and the “% Inhibition of colony formation” value [5] was 44%.
With “{Lys[n-poly(N-vinylpyrrolidone-co-maleic acid)-Gly-Phe-Leu-Gly-]}4,-GnRH-III [P-GFLG-Lys4-GnRH-III]” the “% Inhibition of colony formation” value [1] was 25%, the “% Inhibition of colony formation” value [2] was 68% and the “% Inhibition of colony formation” value [3] was 75%. For the same compound, the “% Inhibition of colony formation” value ([4]; 30 μM) was 94%.
